Source: ChEMBL document CHEMBL1201862, “PubChem BioAssay data set” (2004)
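Five compound concentrations were applied to cells in 96-well plates for 48 hours; endpoints were derived by simple linear interpolation of the resulting dose-response curve. Abbreviation: GI50, concentration required for 50% inhibition of growth.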 Activity calls are given as the source filed them. Rule as the data show it: active = GI50 up to about 1.1 µM and inactive = higher.

Tests used:
Assay in all cases: inhibition of tumour cell growth, NCI panel, 48 h
SNB-19 = system: SNB-19
MOLT-4 = system: MOLT-4
HOP-92 = system: HOP-92
SNB-75 = system: SNB-75
A498 = system: A498
RXF 393 = system: RXF 393
Malme-3M = system: Malme-3M
SK-OV-3 = system: SK-OV-3
HCT-116 = system: HCT-116
COLO 205 = system: COLO 205
UACC-62 = system: UACC-62
SW-620 = system: SW-620
OVCAR-5 = system: OVCAR-5
ACHN = system: ACHN
SK-MEL-2 = system: SK-MEL-2
U-251 = system: U-251
OVCAR-8 = system: OVCAR-8
SN12C = system: SN12C
K562 = system: K562
SK-MEL-5 = system: SK-MEL-5

SMILES	GI50 (SNB-19)	GI50 (MOLT-4)	GI50 (HOP-92)	GI50 (SNB-75)	GI50 (A498)	GI50 (RXF 393)	GI50 (Malme-3M)	GI50 (SK-OV-3)	GI50 (HCT-116)	GI50 (COLO 205)	GI50 (UACC-62)	GI50 (SW-620)	GI50 (OVCAR-5)	GI50 (ACHN)	GI50 (SK-MEL-2)	GI50 (U-251)	GI50 (OVCAR-8)	GI50 (SN12C)	GI50 (K562)	GI50 (SK-MEL-5)
CC(=O)Nc1ccc(S(=O)(=O)/N=c2/sc(S(N)(=O)=O)nn2C)cc1	> 100 µM (inactive)	> 100 µM (inactive)	> 100 µM (inactive)	> 100 µM (inactive)	> 100 µM (inactive)	> 100 µM (inactive)	> 100 µM (inactive)	> 100 µM (inactive)	> 100 µM (inactive)	> 100 µM (inactive)	> 100 µM (inactive)	> 100 µM (inactive)	> 100 µM (inactive)	> 100 µM (inactive)	> 100 µM (inactive)	> 100 µM (inactive)	> 100 µM (inactive)	–	–	–
O=C1C2=Cc3ccccc3CCN2c2ccccc21	46 µM (inactive)	18.7 µM (inactive)	28.8 µM (inactive)	> 100 µM (inactive)	16.3 µM (inactive)	> 10 µM (inactive)	26.3 µM (inactive)	–	21.3 µM (inactive)	> 41.7 µM (inactive)	> 10 µM (inactive)	20.4 µM (inactive)	61.4 µM (inactive)	17.3 µM (inactive)	21 µM (inactive)	> 31.6 µM (inactive)	23.6 µM (inactive)	18.8 µM (inactive)	12.7 µM (inactive)	17.3 µM (inactive)
CC1(C)CC(=O)c2c(nc(SSc3nc4c(c(-c5ccccc5)c3C#N)C(=O)CC(C)(C)C4)c(C#N)c2-c2ccccc2)C1	> 10 µM (inactive)	> 10 µM (inactive)	> 10 µM (inactive)	> 10 µM (inactive)	> 10 µM (inactive)	> 10 µM (inactive)	> 10 µM (inactive)	> 10 µM (inactive)	> 10 µM (inactive)	> 10 µM (inactive)	–	> 10 µM (inactive)	> 10 µM (inactive)	> 10 µM (inactive)	> 10 µM (inactive)	> 10 µM (inactive)	> 10 µM (inactive)	> 10 µM (inactive)	> 10 µM (inactive)	> 10 µM (inactive)
CC1(C)C(c2ccccc2)=[N+]([O-])C(C)(C)N1O	> 10 µM (inactive)	> 10 µM (inactive)	> 10 µM (inactive)	> 10 µM (inactive)	> 10 µM (inactive)	> 10 µM (inactive)	> 10 µM (inactive)	> 10 µM (inactive)	> 10 µM (inactive)	> 10 µM (inactive)	> 10 µM (inactive)	> 10 µM (inactive)	> 10 µM (inactive)	> 10 µM (inactive)	> 10 µM (inactive)	> 10 µM (inactive)	> 10 µM (inactive)	> 10 µM (inactive)	–	> 10 µM (inactive)
C=CCCCN(C(=O)c1ccccc1)c1ccc(C(=O)OC)o1	> 100 µM (inactive)	91.4 µM (inactive)	> 100 µM (inactive)	> 100 µM (inactive)	> 100 µM (inactive)	> 100 µM (inactive)	> 100 µM (inactive)	> 100 µM (inactive)	78 µM (inactive)	81.1 µM (inactive)	> 100 µM (inactive)	–	> 100 µM (inactive)	> 100 µM (inactive)	> 100 µM (inactive)	–	> 100 µM (inactive)	> 100 µM (inactive)	–	31 µM (inactive)
O=C1C(c2ccccc2)=C(c2ccccc2)C(c2ccc(Cc3ccc(C4=C(c5ccccc5)C(=O)C(c5ccccc5)=C4c4ccccc4)cc3)cc2)=C1c1ccccc1	> 100 µM (inactive)	> 100 µM (inactive)	> 100 µM (inactive)	> 100 µM (inactive)	> 100 µM (inactive)	> 100 µM (inactive)	74.1 µM (inactive)	> 100 µM (inactive)	> 100 µM (inactive)	> 100 µM (inactive)	> 100 µM (inactive)	> 100 µM (inactive)	> 100 µM (inactive)	–	> 100 µM (inactive)	> 100 µM (inactive)	> 100 µM (inactive)	–	> 100 µM (inactive)	> 100 µM (inactive)
CC(=O)ON(OC(C)=O)c1ccc(C)cc1	> 100 µM (inactive)	> 100 µM (inactive)	> 100 µM (inactive)	> 100 µM (inactive)	> 100 µM (inactive)	> 100 µM (inactive)	> 100 µM (inactive)	> 100 µM (inactive)	> 100 µM (inactive)	> 100 µM (inactive)	> 100 µM (inactive)	> 100 µM (inactive)	> 100 µM (inactive)	> 100 µM (inactive)	> 100 µM (inactive)	> 100 µM (inactive)	> 100 µM (inactive)	–	> 100 µM (inactive)	> 100 µM (inactive)
COC(=O)c1cccc(OC)c1C#Cc1c(OC)cccc1OC	> 100 µM (inactive)	> 100 µM (inactive)	> 100 µM (inactive)	> 100 µM (inactive)	> 100 µM (inactive)	> 100 µM (inactive)	> 100 µM (inactive)	> 100 µM (inactive)	> 100 µM (inactive)	> 100 µM (inactive)	> 100 µM (inactive)	> 100 µM (inactive)	> 100 µM (inactive)	> 100 µM (inactive)	> 100 µM (inactive)	> 100 µM (inactive)	> 100 µM (inactive)	> 100 µM (inactive)	> 100 µM (inactive)	> 100 µM (inactive)
CN(C)CCNC(=O)c1c2ccccc2cc2ccccc12	> 100 µM (inactive)	3.99 µM (inactive)	60.4 µM (inactive)	42.9 µM (inactive)	31.5 µM (inactive)	25.3 µM (inactive)	34.1 µM (inactive)	> 100 µM (inactive)	26.8 µM (inactive)	18.2 µM (inactive)	20 µM (inactive)	34.4 µM (inactive)	50.9 µM (inactive)	32.4 µM (inactive)	8 µM (inactive)	41.3 µM (inactive)	38.1 µM (inactive)	34.4 µM (inactive)	23.2 µM (inactive)	16.9 µM (inactive)
O=[N+]([O-])c1cc(Cl)ccc1S(=O)(=O)N1CCCc2cc(Cl)ccc21	> 100 µM (inactive)	6.11 µM (inactive)	30.8 µM (inactive)	18.7 µM (inactive)	45.6 µM (inactive)	51.2 µM (inactive)	51.5 µM (inactive)	59.6 µM (inactive)	28.6 µM (inactive)	51.8 µM (inactive)	19.7 µM (inactive)	> 100 µM (inactive)	> 100 µM (inactive)	> 100 µM (inactive)	> 100 µM (inactive)	–	> 100 µM (inactive)	> 100 µM (inactive)	9.48 µM (inactive)	30.8 µM (inactive)
Cc1nc2c3c(ncn2n1)Oc1c(c(-c2ccccc2)nn1-c1ccccc1)C3c1ccc(Cl)cc1 (stereo not drawn)	34.8 µM (inactive)	> 100 µM (inactive)	98.4 µM (inactive)	39.6 µM (inactive)	> 100 µM (inactive)	72.3 µM (inactive)	46.1 µM (inactive)	43.3 µM (inactive)	> 100 µM (inactive)	> 100 µM (inactive)	53.6 µM (inactive)	> 100 µM (inactive)	> 100 µM (inactive)	40.8 µM (inactive)	> 100 µM (inactive)	53.6 µM (inactive)	56.9 µM (inactive)	> 100 µM (inactive)	> 100 µM (inactive)	–
Cc1cc2nc(-c3cc(C(C)(C)C)c(O)c(C(C)(C)C)c3)[nH]c2cc1C	11.6 µM (inactive)	1.82 µM (inactive)	> 100 µM (inactive)	> 100 µM (inactive)	> 100 µM (inactive)	> 100 µM (inactive)	> 100 µM (inactive)	> 100 µM (inactive)	1.79 µM (inactive)	2.9 µM (inactive)	0.979 µM (active)	1.65 µM (inactive)	> 100 µM (inactive)	–	> 100 µM (inactive)	2.64 µM (inactive)	12.7 µM (inactive)	9.62 µM (inactive)	3.18 µM (inactive)	> 71 µM (inactive)
CC(=O)NNc1nc(C)c(C(=O)/C=C/c2ccccc2Cl)s1	> 100 µM (inactive)	> 100 µM (inactive)	> 100 µM (inactive)	> 100 µM (inactive)	> 100 µM (inactive)	> 100 µM (inactive)	> 100 µM (inactive)	> 100 µM (inactive)	–	> 100 µM (inactive)	> 100 µM (inactive)	> 100 µM (inactive)	> 100 µM (inactive)	> 100 µM (inactive)	> 100 µM (inactive)	> 100 µM (inactive)	> 100 µM (inactive)	> 100 µM (inactive)	> 100 µM (inactive)	> 100 µM (inactive)
CCOC(CN(C)C(=O)Nc1cccc2ccccc12)OCC	> 10 µM (inactive)	> 10 µM (inactive)	> 10 µM (inactive)	> 10 µM (inactive)	> 10 µM (inactive)	> 10 µM (inactive)	> 10 µM (inactive)	> 10 µM (inactive)	> 10 µM (inactive)	> 10 µM (inactive)	> 10 µM (inactive)	> 10 µM (inactive)	–	> 10 µM (inactive)	> 10 µM (inactive)	> 10 µM (inactive)	> 10 µM (inactive)	> 10 µM (inactive)	> 10 µM (inactive)	> 10 µM (inactive)
